Data as given in patent US12624018B1, “Inhibitors of RIPK2 and medical uses thereof” (Odyssey Therapeutics, Inc., priority 2022, dated 2026).

Target: T1, RIPK2 enzyme (Homo sapiens, UniProt O43353)
T1 construct: purchased Carna 09-128
Experiment: RIPK2 inhibition (ADP-Glo Kinase Assay)
Type: biochemical
Conditions: RIPK2 5 nM, ATP 150 μM, MBP substrate, read-out: RIPK2 IC50
Experimental: RIPK2 inhibition was measured as follows:
The V9102 ADP-Glo Kinase Assay (including ultrapure ATP, 10 mM) was purchased from Promega. Native swine MBP was used as the substrate for the reaction and was purchased from SignalChem Biotech (catalogue number M42-51N). Assay buffer used for the assay consisted of the following components: MgCl2 (final concentration of 10 mM), Brij-35 (0.01%), DTT (final concentration of 2 mM), BSA (0.05%), EGTA (final concentration of 1 mM), and HEPE (pH 7.5 at final concentration of 50 mM).
Method: In a 384 well plate, 10 nL of test compound was dispensed using Echo550 and mixed with RIPK2 enzyme (final concentration of 5 nM) in assay buffer for 30 minutes at room temperature. […] Then ADP-Glo reagent was added and incubated for 60 min at room temperature. Last, Kinase Detection Reagent was added to the mixture and incubated for 60 min. The resulting luminescent signal was measured with an Envision reader to determine the amount of ADP produced. All plates contained vehicle controls (10 nL DMSO only) as a reference for the high control (0% kinase inhibition), and wells with no RIPK2 enzyme as reference for low control (100% kinase inhibition). Data were analyzed to determine the percent inhibition of ADP production in the presence of test compound using both low and high controls.

T1 sequence (O43353 1-299 limits assumed): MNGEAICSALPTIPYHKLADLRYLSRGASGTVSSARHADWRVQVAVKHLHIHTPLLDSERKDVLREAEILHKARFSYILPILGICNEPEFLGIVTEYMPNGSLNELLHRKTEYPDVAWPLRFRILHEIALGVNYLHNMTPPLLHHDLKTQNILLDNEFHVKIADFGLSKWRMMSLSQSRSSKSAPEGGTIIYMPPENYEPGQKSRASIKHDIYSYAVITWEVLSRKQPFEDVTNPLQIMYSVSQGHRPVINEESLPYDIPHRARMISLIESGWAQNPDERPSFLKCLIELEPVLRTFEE

Row | SMILES | IC50
1 | Cc1cc(CC(=O)Nc2cnn(C(C)(C)C)c2)ccc1Oc1ccnc2ccc(OCCO)cc12 [Compound 223, N-(1-(tert-butyl)-1H-pyrazol-4-yl)-2-(4-((6-(2-hydroxy-ethoxy)quinolin-4-yl)oxy)-3-methylphenyl) acetamide] | < 2.5 nM
2 | Cc1c(Oc2ccnc3ccc(C(N)=O)cc23)ccc(CC(=O)Nc2cnn(C(C)(C)C)c2)c1F [Compound 334, 4-(4-(2-((1-(tert-butyl)-1H-pyrazol-4-yl)amino)-2-oxoethyl)-3-fluoro-2-methyl-phenoxy) quinoline-6-carboxamide] | < 2.5 nM
3 | Cc1cc(CC(=O)Nc2cnn(C(C)(C)C)c2)ccc1Oc1ccnc2ccc(N3CC(CO)OC3=O)cc12 (single isomer, unassigned) [Compound 318, N-(1-(tert-butyl)-1H-pyrazol-4-yl)-2-(4-((6-(5-(hydroxymethyl)-2-oxooxazolidin-3-yl)quinolin-4-yl)oxy)-3-methylphenyl) acetamide] | < 2.5 nM
4 | Cc1cc(CC(=O)Nc2cnn(C(C)(C)C)c2)c(F)cc1Oc1ncnc2ccc(OC3CCNCC3)cc12 [Compound 116] | < 2.5 nM
5 | Cc1c(Oc2ccnc3ccc(C(=O)N(C)C)cc23)ccc(CC(=O)Nc2cnn(C(C)(C)C)c2)c1F [Compound 336, 4-(4-(2-((1-(tert-butyl)-1H-pyrazol-4-yl)amino)-2-oxoethyl)-3-fluoro-2-methyl-phenoxy)-N,N-dimethyl-quinoline-6-carboxamide] | < 2.5 nM
6 | Cc1cc(CC(=O)Nc2cnn(C(C)(C)C)c2)ccc1Oc1ccnc2ccc(S(=O)(=O)CC3CCOC3)cc12 (single isomer, unassigned) [Compound 241, N-(1-(tert-butyl)-1H-pyrazol-4-yl)-2-(3-methyl-4-((6-(((tetrahydrofuran-3-yl)methyl)sulfonyl)quinolin-4-yl)oxy)phenyl)acetamide] | < 2.5 nM
7 | CNC(=O)c1ccc2nccc(Oc3ccc(CC(=O)Nc4cnn(C(C)(C)C)c4)c(F)c3C)c2c1 [Compound 335, 4-(4-(2-((1-(tert-butyl)-1H-pyrazol-4-yl)amino)-2-oxoethyl)-3-fluoro-2-methyl-phenoxy)-N-methyl-quinoline-6-carboxamide] | < 2.5 nM
8 | Cc1cc(CC(=O)Nc2cnn(C(C)(C)C)c2)ccc1Oc1ccnc2ccc(OC3CCNCC3F)cc12 (racemic) [Compound 237, N-(1-(tert-butyl)-1H-pyrazol-4-yl)-2-(4-((6-((-3-fluoro-piperidin-4-yl)oxy)quinolin-4-yl)oxy)-3-methylphenyl) acetamide] | < 2.5 nM
9 | CC(C)(C)n1cc(NC(=O)Cc2ccc(Oc3ccnc4ccc(NS(C)(=O)=O)cc34)cc2F)cn1 [Compound 68, N-(1-(tert-butyl)-1H-pyrazol-4-yl)-2-(2-fluoro-4-((6-(methylsulfonamido)quinolin-4-yl)oxy)phenyl)acetamide] | < 2.5 nM
10 | CN1CCC(Oc2ccc3ncnc(Oc4ccc(CC(=O)Nc5cnn(C(C)(C)C)c5)cc4Cl)c3c2)CC1 [Compound 159, N-(1-(tert-butyl)-1H-pyrazol-4-yl)-2-(3-chloro-4-((6-((1-methyl-piperidin-4-yl)oxy)quinazolin-4-yl)oxy)phenyl) acetamide] | < 2.5 nM
11 | Cc1c(Oc2ccnc3ccc(C(=O)NC4CC(C#N)C4)cc23)ccc(CC(=O)Nc2cnn(C(C)(C)C)c2)c1F (single isomer, unassigned) [Compound 403, 4-(4-(2-((1-(tert-butyl)-1H-pyrazol-4-yl)amino)-2-oxoethyl)-3-fluoro-2-methyl-phenoxy)-N-(-3-cyano-cyclobutyl) quinoline-6-carboxamide] | < 2.5 nM
12 | C[S+]([O-])c1ccc2ncnc(Oc3ccc(CC(=O)Nc4cnn(C(C)(C)C)c4)c(F)c3)c2c1 (stereo not shown) [Compound 44, N-(1-(tert-butyl)-1H-pyrazol-4-yl)-2-(2-fluoro-4-((6-(methylsulfinyl)quinazolin-4-yl)oxy)phenyl)acetamide] | 26.2 nM
13 | [2H]C([2H])([2H])c1cc(CC(=O)Nc2cnn(C(C)(C)C)c2)ccc1Oc1ccnc2ccc(OC3CCNCC3)cc12 [Compound 104, N-(1-(tert-butyl)-1H-pyrazol-4-yl)-2-(3-(methyl-d3)-4-((6-(piperidin-4-yloxy)quinolin-4-yl)oxy)phenyl) acetamide] | < 2.5 nM
14 | Cc1cc(CC(=O)Nc2noc(C(C)(C)C)n2)ccc1Oc1ncnc2ccc(OC3CCNCC3)cc12 [Compound 183, N-(5-(tert-butyl)-1,2,4-oxadiazol-3-yl)-2-(3-methyl-4-((6-(piperidin-4-yloxy)quinazolin-4-yl)oxy)phenyl) acetamide] | < 2.5 nM
15 | CCS(=O)(=O)c1ccc2nccc(Oc3ccc(CC(=O)Nc4cnn(C(C)(C)C)c4)cc3F)c2c1 [Compound 164, N-(1-(tert-butyl)-1H-pyrazol-4-yl)-2-(4-((6-(ethylsulfonyl)quinolin-4-yl)oxy)-3-fluorophenyl)acetamide] | < 2.5 nM
16 | Cc1cc(CC(=O)Nc2cnn(C(C)(C)C)c2)ccc1Oc1ccnc2ccc(OCC(C)O)cc12 (single isomer, unassigned) [Compound 225, N-(1-(tert-butyl)-1H-pyrazol-4-yl)-2-(4-((6-(2-hydroxy-propoxy)quinolin-4-yl)oxy)-3-methylphenyl) acetamide] | < 2.5 nM
17 | Cc1cc(CC(=O)Nc2cnn(C(C)(C)C)c2)ccc1Oc1ccnc2ccc(OCC(=O)O)cc12 [Compound 227, 2-((4-(4-(2-((1-(tert-butyl)-1H-pyrazol-4-yl)amino)-2-oxoethyl)-2-methyl-phenoxy)quinolin-6-yl)oxy)acetic acid] | < 2.5 nM
18 | Cc1cc(CC(=O)Nc2cnn(C(C)(C)C)c2)ccc1Oc1ccnc2ccc(S(=O)(=O)N3CCOCC3)cc12 [Compound 261, N-(1-(tert-butyl)-1H-pyrazol-4-yl)-2-(3-methyl-4-((6-(morpholinosulfonyl)quinolin-4-yl)oxy)phenyl)acetamide] | < 2.5 nM
19 | Cc1c(Oc2ccnc3ccc(S(=O)(=O)N4C[C@@H](C)O[C@@H](C)C4)cc23)ccc(CC(=O)Nc2cnn(C(C)(C)C)c2)c1F [Compound 386, N-(1-(tert-butyl)-1H-pyrazol-4-yl)-2-(4-((6-(((2R,6S)-2,6-dimethylmorpholino)sulfonyl)quinolin-4-yl)oxy)-2-fluoro-3-methylphenyl)acetamide] | < 2.5 nM

Further lines, results first:

Row | IC50 | SMILES
20 | < 2.5 nM | Cc1c(Oc2ccnc3ccc(S(N)(=O)=O)cc23)ccc(CC(=O)Nc2cnn(C(C)(C)C)c2)c1F [Compound 267, N-(1-(tert-butyl)-1H-pyrazol-4-yl)-2-(2-fluoro-3-methyl-4-((6-sulfamoylquinolin-4-yl)oxy)phenyl)acetamide]
21 | 15.4 nM | COCCOc1ccc2ncnc(Oc3ccc(CC(=O)Nc4cnn(C(C)(C)C)c4)c(F)c3)c2c1 [Compound 50, N-(1-(tert-butyl)-1H-pyrazol-4-yl)-2-(2-fluoro-4-((6-(2-methoxy-ethoxy)quinazolin-4-yl)oxy)phenyl) acetamide]
22 | < 2.5 nM | Cc1cc(CC(=O)Nc2cnn(C(C)(C)C)c2)ccc1Oc1ccnc2ccc(N3CC(CO)OC3=O)cc12 (single isomer, unassigned) [Compound 317, N-(1-(tert-butyl)-1H-pyrazol-4-yl)-2-(4-((6-(5-(hydroxymethyl)-2-oxooxazolidin-3-yl)quinolin-4-yl)oxy)-3-methylphenyl) acetamide]
23 | 24 nM | CC(C)(C)n1cc(NC(=O)Cc2ncc(Oc3ncnc4ccc(Cl)cc34)cc2F)cn1 [Compound 7, N-(1-(tert-butyl)-1H-pyrazol-4-yl)-2-(5-((6-chloroquinazolin-4-yl)oxy)-3-fluoro-pyridin-2-yl)acetamide]
24 | < 2.5 nM | Cc1cc(CC(=O)Nc2cnn(C(C)(C)C)c2)ccc1Oc1ccnc2ccc(S(=O)(=O)N(C)CCO)cc12 [Compound 262, N-(1-(tert-butyl)-1H-pyrazol-4-yl)-2-(4-((6-(N-(2-hydroxyethyl)-N-methylsulfamoyl)quinolin-4-yl)oxy)-3-methylphenyl)acetamide]
25 | < 2.5 nM | CCNC(=O)c1ccc2nccc(Oc3cc(F)c(CC(=O)Nc4cnn(C(C)(C)C)c4)cc3C)c2c1 [Compound 363, 4-(4-(2-((1-(tert-butyl)-1H-pyrazol-4-yl)amino)-2-oxoethyl)-5-fluoro-2-methyl-phenoxy)-N-ethyl-quinoline-6-carboxamide]
26 | 2.5 nM | Cc1cc(CC(=O)Nc2cnn(C(C)(C)C)c2)ccc1Oc1ccnc2ccc(S(=O)(=O)N3CC(C#N)C3)cc12 [Compound 260, N-(1-(tert-butyl)-1H-pyrazol-4-yl)-2-(4-((6-((3-cyanoazetidin-1-yl)sulfonyl)quinolin-4-yl)oxy)-3-methylphenyl)acetamide]
27 | < 2.5 nM | Cc1cc(CC(=O)Nc2cnn(C(C)(C)C)c2)ccc1Oc1ccnc2ccc(N3C(=O)CCC3C)cc12 (single isomer, unassigned) [Compound 291, N-(1-(tert-butyl)-1H-pyrazol-4-yl)-2-(3-methyl-4-((6-(2-methyl-5-oxopyrrolidin-1-yl)quinolin-4-yl)oxy)phenyl) acetamide]
28 | 19.2 nM | CC(C)(C)n1cc(NC(=O)Cc2ccc(Oc3ncnc4ccc(C(=O)N5CCCC5)cc34)cc2F)cn1 [Compound 27, N-(1-(tert-butyl)-1H-pyrazol-4-yl)-2-(2-fluoro-4-((6-(pyrrolidine-1-carbonyl)quinazolin-4-yl)oxy)phenyl) acetamide]
